The test system of this assay is BDF1 mice, P288 leukemia ip, survival T/C. Description: NCI In Vivo Anticancer Drug Screen. Data for tumor model P288 Lymphocytic Leukemia (intraperitoneal) in B6D2F1 (BDF1) mice. To be noted: endpoint: survival time, mean or median, higher = longer survival. How it is done: The antitumor activity of compounds was measured in mice bearing transplantable tumors. Survival or tumor size were measured and the results are expressed as the measurement made in the treated group (T) divided by the measurement made in the vehicle treated control group (C). The tumor model used in this assay is P288 Lymphocytic Leukemia (intraperitoneal) in B6D2F1 (BDF1) mice

Where [1] appears, read: dose: 50.0 mg/kg/injection, schedule: Q01DX010 (ip), vehicle: saline.
The mark [2] stands for this setting: dose: 100.0 mg/kg/injection, schedule: Q01DX010 (ip), vehicle: saline.
Setting [3] is: dose: 200.0 mg/kg/injection, schedule: Q01DX010 (ip), vehicle: saline.

Several values for one entry are separate records, joined by “and”; a condition that tells them apart may be missing. Equal entries are not always repeated. Inconclusive results and toxic doses are left out.

`N=C(N)c1ccc(Nc2ccc(C(=N)N)cc2)cc1`: the T/C (dose: 1.6 mg/kg/injection, schedule: Q01DX Z (ip), vehicle: methylcellulose (MC)) is 86 % of control; the T/C (dose: 3.0 mg/kg/injection, schedule: Q01DX010 (ip), vehicle: saline) was 100 % of control; the T/C (dose: 6.0 mg/kg/injection, schedule: Q01DX010 (ip), vehicle: saline) is 106 % of control; the T/C (dose: 6.25 mg/kg/injection, schedule: Q01DX Z (ip), vehicle: methylcellulose (MC)) was 88 % of control; the T/C (dose: 6.3 mg/kg/injection, schedule: Q01DX Z (ip), vehicle: methylcellulose (MC)) is 90 % of control; the T/C (dose: 12.0 mg/kg/injection, schedule: Q01DX010 (ip), vehicle: saline) is 100 % of control. For the same compound, the T/C (dose: 12.5 mg/kg/injection, schedule: Q01DX Z (ip), vehicle: methylcellulose (MC)) was 115 % of control; the T/C (dose: 24.0 mg/kg/injection, schedule: Q01DX010 (ip), vehicle: saline) is 87 % of control; the T/C (dose: 25.0 mg/kg/injection, schedule: Q01DX Z (ip), vehicle: methylcellulose (MC)) is 87 % of control.

As for `CCCCNc1ncnc2c1cnn2C`, the T/C is, setting by setting: (dose: 0.22 mg/kg/injection, schedule: Q01DX Z (ip), vehicle: carboxymethylcellulose (CMC)) 90 % of control; (dose: 0.45 mg/kg/injection, schedule: Q01DX Z (ip), vehicle: carboxymethylcellulose (CMC)) 90 % of control; (dose: 0.9 mg/kg/injection, schedule: Q01DX Z (ip), vehicle: carboxymethylcellulose (CMC)) 90 % of control.

Consider `Nc1nc(=S)c2[nH]cnc2[nH]1`, for which the T/C by setting is: (dose: 0.12 mg/kg/injection, schedule: Q01DX Z (ip), vehicle: carboxymethylcellulose (CMC)) 101 % of control; (dose: 0.25 mg/kg/injection, schedule: Q01DX Z (ip), vehicle: carboxymethylcellulose (CMC)) 105 % of control and 109 % of control; (dose: 0.5 mg/kg/injection, schedule: Q01DX Z (ip), vehicle: carboxymethylcellulose (CMC)) 111 % of control and 122 % of control and 86 % of control; (dose: 1.0 mg/kg/injection, schedule: Q01DX Z (ip), vehicle: carboxymethylcellulose (CMC)) 107 % of control and 100 % of control; (dose: 2.0 mg/kg/injection, schedule: Q01DX Z (ip), vehicle: carboxymethylcellulose (CMC)) 103 % of control and 117 % of control and 98 % of control; (dose: 2.5 mg/kg/injection, schedule: Q01DX010 (ip), vehicle: other) 115 % of control. For the same compound, the T/C was 94 % of control (dose: 4.0 mg/kg/injection, schedule: Q01DX Z (ip), vehicle: carboxymethylcellulose (CMC)); 110 % of control and 94 % of control (dose: 5.0 mg/kg/injection, schedule: Q01DX010 (ip), vehicle: other); 94 % of control (dose: 10.0 mg/kg/injection, schedule: Q01DX010 (ip), vehicle: other).

As to `O=C1C(NC(=O)C2CCCCC2)=C(N2CC2)C(=O)C(NC(=O)C2CCCCC2)=C1N1CC1`, the T/C runs as follows: (dose: 18.8 mg/kg/injection, schedule: Q01DX Z (ip), vehicle: carboxymethylcellulose (CMC)) 93 % of control; (dose: 25.0 mg/kg/injection, schedule: Q01DX010 (ip), vehicle: saline) 100 % of control; (dose: 37.5 mg/kg/injection, schedule: Q01DX Z (ip), vehicle: carboxymethylcellulose (CMC)) 96 % of control; under setting [1], 94 % of control; (dose: 75.0 mg/kg/injection, schedule: Q01DX Z (ip), vehicle: carboxymethylcellulose (CMC)) 107 % of control; under setting [2], 88 % of control. Moreover, the T/C was 100 % of control (dose: 150.0 mg/kg/injection, schedule: Q01DX Z (ip), vehicle: carboxymethylcellulose (CMC)); 100 % of control under setting [3]; 112 % of control (dose: 300.0 mg/kg/injection, schedule: Q01DX Z (ip), vehicle: carboxymethylcellulose (CMC)); 105 % of control and 120 % of control (dose: 600.0 mg/kg/injection, schedule: Q01DX Z (ip), vehicle: carboxymethylcellulose (CMC)); 86 % of control (dose: 1200.0 mg/kg/injection, schedule: Q01DX Z (ip), vehicle: carboxymethylcellulose (CMC)).

As to `CO[C@@H]1[C@@H](OC2OC(C)C(OC3CC(C)(O)C(OC(=O)CC(C)C)C(C)O3)C(N(C)C)C2O)[C@@H](CC=O)C[C@@H](C)C(=O)/C=C/C2O[C@H]2C[C@@H](C)OC(=O)C[C@H]1OC(C)=O` (stereo not given in full), the T/C reads like this: (dose: 37.5 mg/kg/injection, schedule: Q01DX010 (ip), vehicle: saline) 94 % of control; under setting [1], 112 % of control; (dose: 75.0 mg/kg/injection, schedule: Q01DX010 (ip), vehicle: saline) 88 % of control; under setting [2], 162 % of control; (dose: 150.0 mg/kg/injection, schedule: Q01DX010 (ip), vehicle: saline) 88 % of control; under setting [3], 168 % of control. For the same compound, where the note is “dose: 300.0 mg/kg/injection, schedule: Q01DX010 (ip), vehicle: saline”, the T/C was 100 % of control.

For `O=c1[nH]c(=O)n(C2CC(O)C(CO)O2)cc1Br` (stereo not given), the T/C by setting is: (dose: 6.5 mg/kg/injection, schedule: Q01DX Z (ip), vehicle: carboxymethylcellulose (CMC)) 96 % of control; (dose: 8.0 mg/kg/injection, schedule: Q01DX Z (ip), vehicle: carboxymethylcellulose (CMC)) 95 % of control; (dose: 13.0 mg/kg/injection, schedule: Q01DX Z (ip), vehicle: carboxymethylcellulose (CMC)) 107 % of control; (dose: 26.0 mg/kg/injection, schedule: Q01DX Z (ip), vehicle: carboxymethylcellulose (CMC)) 102 % of control; (dose: 31.0 mg/kg/injection, schedule: Q01DX Z (ip), vehicle: carboxymethylcellulose (CMC)) 90 % of control.

With `NC(CCSCc1ccc(N(CCCl)CCCl)cc1)C(=O)O` (stereo not given), the T/C is 88 % of control (dose: 4.5 mg/kg/injection, schedule: Q01DX010 (ip), vehicle: saline); 100 % of control (dose: 9.0 mg/kg/injection, schedule: Q01DX010 (ip), vehicle: saline); 88 % of control (dose: 18.0 mg/kg/injection, schedule: Q01DX010 (ip), vehicle: saline); 100 % of control (dose: 36.0 mg/kg/injection, schedule: Q01DX010 (ip), vehicle: saline); 161 % of control (dose: 54.0 mg/kg/injection, schedule: Q01DX010 (ip), vehicle: saline); 172 % of control (dose: 80.0 mg/kg/injection, schedule: Q01DX010 (ip), vehicle: saline).

On to `S=P(N1CCOCC1)(N1CC1)N1CC1`, for which the T/C by setting is: (dose: 3.1 mg/kg/injection, schedule: Q01DX Z (ip), vehicle: carboxymethylcellulose (CMC)) 92 % of control; (dose: 6.25 mg/kg/injection, schedule: Q01DX Z (ip), vehicle: carboxymethylcellulose (CMC)) 119 % of control; (dose: 10.0 mg/kg/injection, schedule: Q01DX010 (ip), vehicle: saline) 95 % of control; (dose: 12.5 mg/kg/injection, schedule: Q01DX Z (ip), vehicle: carboxymethylcellulose (CMC)) 90 % of control; (dose: 20.0 mg/kg/injection, schedule: Q01DX010 (ip), vehicle: saline) 95 % of control; (dose: 25.0 mg/kg/injection, schedule: Q01DX Z (ip), vehicle: carboxymethylcellulose (CMC)) 86 % of control.

For `CCCCCCCCCCCCNCCCCCCCCCCCC`, the T/C is 108 % of control (dose: 7.5 mg/kg/injection, schedule: Q01DX Z (ip), vehicle: carboxymethylcellulose (CMC)); 106 % of control (dose: 15.0 mg/kg/injection, schedule: Q01DX Z (ip), vehicle: carboxymethylcellulose (CMC)); 110 % of control (dose: 30.0 mg/kg/injection, schedule: Q01DX Z (ip), vehicle: carboxymethylcellulose (CMC)); 116 % of control (dose: 60.0 mg/kg/injection, schedule: Q01DX Z (ip), vehicle: carboxymethylcellulose (CMC)).

For the origin of these results see PubChem BioAssay AID216 (DTP/NCI, 2004).
